The values that follow come from paper PMC6874179, “Development of Macrocycle Kinase Inhibitors for ALK2 Using Fibrodysplasia Ossificans Progressiva‐Derived Endothelial Cells” (JBMR Plus, 2019).

Values after ≈ are worked out from the molar mass of the structure shown. Where two headings read alike, the source gives them in different places.

One data set is described as follows: Solubility determination. Type of data set: physicochemical. The conditions noted are these: kinetic from dmso stock, 2-hour equilibrium, room temperature. On the procedure:
Test compound from 5 mM DMSO stock solution were diluted to 250 µM either in 50 mM PBS pH 7.4 or FaSSIF pH 6.5 in triplicate. DMSO final concentration was 5%. After a 2-hour equilibrium at room temperature and under shaking, samples were centrifuged at 3000g for 10 min at room temperature. A calibration curve was prepared in LC mobile phase from the 5 mM DMSO stock solution. Samples and calibration curve were analyzed by LC with UV detection.

A further data set addresses T1, TBR2 (Homo sapiens, UniProt P37173).
T1 construct: T7 phage fusion (or DNA tag for qPCR if made in HEK-293); purchased DiscoverX; host or cells: E. coli (T7 phage) or HEK-293
Kind of data set: DiscoverX Kd determination. It is filed as binding. On the procedure: DiscoverX Kd determination: For most assays, kinase-tagged T7 phage strains were prepared in an E. coli host derived from the BL21 strain. E. coli were grown to log-phase and infected with T7 phage and incubated with shaking at 32°C until lysis. The lysates were centrifuged and filtered to remove cell debris. The remaining kinases were produced in HEK-293 cells and subsequently tagged with DNA for qPCR detection. […] The liganded beads were blocked with excess biotin and washed with blocking buffer (SeaBlock (Pierce), 1% BSA, 0.05% Tween 20, 1 mM DTT) to remove unbound ligand and to reduce non-specific binding. […] Kds were determined using an 11-point 3-fold compound dilution series with three DMSO control points. […] The compounds were then diluted directly into the assays such that the final concentration of DMSO was 0.9%. All reactions performed in polypropylene 384-well plate. Each was a final volume of 0.02 ml. […] The kinase concentration in the eluates was measured by qPCR. An 11-point 3-fold serial dilution of each test compound was prepared in 100% DMSO at 100x final test concentration and subsequently diluted to 1x in the assay (final DMSO concentration = 1%). Most Kds were determined using a compound top concentration = 30.000 nM. […] Binding constants (Kds) were calculated with a standard dose-response curve using the Hill equation: Response = Background + Signal – Background 1 + (KdHill Slope / DoseHill Slope). The Hill Slope was set to -1. Curves were fitted using a non-linear least square fit with the Levenberg-Marquardt algorithm.

A short description of another data set: Chromlog D. It is filed as physicochemical. From the text:
Supplement JBM4-3-na-s005.docx, table 3: Table S3. Solubility and metabolic clearance of selected macrocyclic inhibitors. | column: Chromlog D

A short description of data set [1]: Microsomal incubations, hLM. It is filed as in vitro ADME. The conditions noted are these: human, pooled liver microsomes, pH 7.4; microsomes 0.5 mg/ml, 0.5 μM compound; read-out: Metabolic clearance hLM. How it is done: Pooled human liver microsomes were purchased from Xenotech LLC (Kansas City, KS). Microsomes (0.5 mg/ml) were preincubated with 0.5 μM test compound for 7 min at 37°C in 50 mM phosphate buffer, pH 7.4. The reactions were initiated by adding prewarmed cofactor (0.44 mM NADPH). Aliquots of samples were taken at 0, 5, 10, 20 and 45 min and the reactions terminated by addition of cold acetonitrile containing an internal standard. Samples were centrifuged at 3000g for 10 min at 4°C and then supernatants were analyzed by LC/MS/MS for the amount of parent compound remaining.
(In general: Liver microsomes are vesicles of endoplasmic reticulum, rich in cytochrome P450 enzymes.)

Data set [2] in a line: Microsomal incubations, mLM. The conditions noted are these: mouse, liver microsomes, pH 7.4; microsomes 0.5 mg/ml, 0.5 μM compound; read-out: Metabolic clearance mLM. It is filed as in vitro ADME.
The next data set has as its system FOP ECFCs. Kind of data set: Osteogenic differentiation (mineralization) of FOP ECFCs. It is filed as cell-based, human. The settings on record: osteogenic conditions, Alizarin Red; for Effect on BMP-6-induced osteogenic differentiation: BMP-6 50 ng/mL; for Effect on activin A-induced osteogenic differentiation: activin A 50 ng/mL. How it is done: For mineralization assays, 5 × 10^4 ECs were seeded into 48‐well plates and incubated in osteogenic medium containing 10^−8M/L dexamethasone, 0.2mM/L ascorbic acid, and 10mM/L β‐glycerolphosphate in the presence of BMP/ TGF‐β ligands for 28 days. The medium was refreshed every 4 days. Afterwards, cells were washed twice with PBS and fixed with 3.7% formaldehyde for 5 min. Next, cells were washed twice with distilled water; measurement of calcium deposition was performed by Alizarin Red solution (ARS) staining, as previously described.16 Precipitates, originated from three independent ARS assays, were dissolved using 10% cetylpyridinium chloride, and absorbance was measured at 570 nm. Representative pictures were obtained using a Leica DMIL LED microscope (Leica, Wetzlar, Germany) with 10× magnification.
Cells were incubated for 21 days in chondrogenic medium containing BMP‐6 or activin A (50 ng/mL) and LDN‐193189, OD36, or OD52 at 0.5μM, prior to Alcian Blue staining. (B) Quantification of Fig. 6 A by absorbance, after solubilization with guanidine hydrochloride. (C) Chondrogenic gene expression analysis of collagen 2 (Col2), Sox9, Matrix metalloproteinase 13 (Mmp13), and collagen X (Col X) in ATDC5 cells corresponding to (A). (D) Western blot of a representative clone of FOP endothelial colony‐forming cells (ECFCs) incubated with LDN‐193189, OD36, or OD52 (0.5μM) prior to stimulation with BMP‐6 (50 ng/mL) or activin A (50 ng/mL). (E) Expression of the BMP target genes ID1 and ID3 by qPCR in FOP ECFCs stimulated with BMP‐6 (50 ng/mL) or activin A (50 ng/mL) in the presence of the indicated compounds at 0.5μM. (F) Alizarin Red solution staining on a representative clone of FOP ECFCs incubated under osteogenic conditions with BMP‐6 (50 ng/mL) or activin A (50 ng/mL) and the indicated compounds. (G) Quantification of Fig. 6 F by absorbance, after solubilization with cetylpyridinium. (H) Osteogenic genes Collagen 1 alpha 1 (Col1a1), Runx2, and osterix (Osx) expression in a representative clone of FOP ECFCs incubated under osteogenic conditions with BMP‐6 (50 ng/mL) or activin A (50 ng/mL) and LDN‐193189, OD36, or OD52 (0.5 μM). *p < 0.05, **p < 0.01, ***p < 0.001.

Setting [3] is: PBS buffer, aqueous buffer, 50 mM PBS pH 7.4, 5% DMSO, read-out: Solubility in µM PBS.
[4] abbreviates: FaSSIF pH 6.5, 5% DMSO, read-out: Solubility in µM FaSSIF.

T1 sequence (P37173 23-567): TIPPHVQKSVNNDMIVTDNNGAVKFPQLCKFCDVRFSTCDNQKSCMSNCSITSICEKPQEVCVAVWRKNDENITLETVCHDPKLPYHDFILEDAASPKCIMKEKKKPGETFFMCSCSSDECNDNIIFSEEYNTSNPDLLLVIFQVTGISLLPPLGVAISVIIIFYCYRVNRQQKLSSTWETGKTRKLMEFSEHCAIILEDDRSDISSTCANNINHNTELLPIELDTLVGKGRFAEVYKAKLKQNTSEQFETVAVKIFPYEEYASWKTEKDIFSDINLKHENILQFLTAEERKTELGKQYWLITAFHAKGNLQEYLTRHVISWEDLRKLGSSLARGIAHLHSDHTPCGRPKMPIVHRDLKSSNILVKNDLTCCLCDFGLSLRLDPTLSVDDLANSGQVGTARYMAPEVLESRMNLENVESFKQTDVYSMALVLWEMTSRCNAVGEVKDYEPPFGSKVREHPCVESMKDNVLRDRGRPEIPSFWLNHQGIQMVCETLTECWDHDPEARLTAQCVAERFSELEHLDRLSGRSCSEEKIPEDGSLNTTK

The solubility is how much of the substance goes into solution per volume. The term Kd denotes the concentration at which binding is half-saturated. The term chromatographic logD denotes a lipophilicity value derived from retention on a column. High values mean a more lipophilic compound, low ones a more hydrophilic compound. As to `Clc1cc2cc(c1)-c1cnn3ccc(nc13)NCCOCCO2` [OD36], the results for the solubility at 2 h in “Solubility determination” (setting [3]) and in the data set “Solubility determination” (setting [4]) were 2 µM (≈ 0.662 µg/mL) and 212 µM (≈ 70.1 µg/mL), respectively. In addition, on TBR2 (read-out: Kd in nM TBR2), the Kd was determined as 680 nM. The compound also returned a chromatographic logD in the data set “Chromlog D” of 5.4. In addition, the microsomal CLint at 0.5 μM in data set [1] was 59 µL/min/mg; in data set [2], 207 µL/min/mg. The “Effect on BMP-6-induced osteogenic differentiation” value in the data set with FOP ECFCs is on record as “modest effect”. For the same compound, in the data set on FOP ECFCs, the “Effect on activin A-induced osteogenic differentiation” value is recorded as “efficiently blocked”.

Take `Cc1cc2cc(c1)-c1cnn3ccc(nc13)NCCNC(=O)CCN(C)C2` [OD52]: the solubility at 2 h was 140 µM (≈ 51 µg/mL) in the data set “Solubility determination” (setting [3]) and 240 µM (≈ 87.5 µg/mL) in “Solubility determination” (setting [4]). In addition, the Kd on TBR2 (read-out: Kd in nM TBR2) amounted to 2500 nM. In the data set “Chromlog D”, the chromatographic logD came to 3.9. Moreover, the microsomal CLint at 0.5 μM is 72 µL/min/mg in data set [1] and 84 µL/min/mg in data set [2]. The “Effect on BMP-6-induced osteogenic differentiation” value in the data set with FOP ECFCs is recorded as “modest effect”. In addition, the “Effect on activin A-induced osteogenic differentiation” value with FOP ECFCs is “efficiently blocked”.

For `c1ccc2c(-c3cnn4cc(-c5ccc(N6CCNCC6)cc5)cnc34)ccnc2c1` [LDN-193189, reference compound], the values for the solubility at 2 h in the data set “Solubility determination” (setting [3]) and in the data set “Solubility determination” (setting [4]) were 5 µM (≈ 2.03 µg/mL) and 49 µM (≈ 19.9 µg/mL), respectively. At TBR2, this compound gave a Kd of 26 nM. The chromatographic logD in “Chromlog D” was found to be 2.7. In addition, the microsomal CLint at 0.5 μM came out at 61 µL/min/mg in data set [1] and 95 µL/min/mg in data set [2]. In addition, in the data set on FOP ECFCs, the “Effect on activin A-induced osteogenic differentiation” value is listed as “inhibited”.
